Measured values from article PMC4550478, “Metronidazole-triazole conjugates: Activity against Clostridium difficile and parasites” (European Journal of Medicinal Chemistry, 2015).
Converted amounts (≈) assume the structure as drawn. Like-named read-outs stand apart in the source and are kept apart here.

Experiments:
Assay type in all cases: cell-based, Clostridium difficile
[1] = system: C. difficile 630 ATCC BAA-1382; assay: MIC broth microdilution, C. difficile 630; details: 24 h, median of at least n = 4; for MIC: Clostridioides difficile, ATCCBAA1382, MtzS
Protocol: (§1) All compounds were tested for activity against a set of anaerobic C. difficile bacteria (630 ATCC BAA-1382, NAP1/027 M7404, NAP1/027 ATCC BAA-1803, VPI10463 ATCC 43255, CD26A54_S and CD26A54_R) and representative ESKAPE pathogens S. aureus (MRSA ATCC 43300), E. coli (ATCC 25922), K. pneumoniae (ATCC 700603), A. baumannii (ATCC 19606) and P. aeruginosa (ATCC 27853) using a standard broth microdilution assay. Selected compounds were tested for activity against H. pylori strains (26695, and clinical isolates MtzS 13/25, MtzR 98/285 and MtzR 13/61) using agar plate dilution, and for antimicrobial activity against […] Gram-positive bacterial strains: Enterococcus faecalis (VanA clinical isolate), Enterococcus faecium (MDR VanA ATCC 51559), Streptococcus pneumoniae (MDR ATCC 700677), S. aureus (MRSA ATCC 43300, MRSA clinical isolate, MRSA/DRSA clinical isolate, GISA NARSA NRS 1, GISA NARSA NRS 17, VRSA NARSA VRS1, VRSA NARSA VRS4 and VRSA NARSA VRS10) using broth microdilution. C. difficile strains were grown at 37 °C in a COY anaerobic chamber (5% H2, 10% CO2, 85% N2). H. pylori strains were grown at 37 °C under a microaerobic atmosphere (5% O2, 10% CO2). All facultative anaerobic bacteria were grown at 37 °C with normal atmospheric oxygen levels. All experiments were performed in duplicate with metronidazole, vancomycin, linezolid or colistin as positive controls for relevant strains (see Table 1). Positive growth control of bacteria and DMSO as well as a negative control of only media were included for every plate. Full assay details are provided in the supplementary information.
(§2) C. difficile ATCC BAA-1382, ATCC BAA-1803, ATCC 43255 and M7404 heat shocked spore stocks (10 µL) were transferred into the anaerobic chamber and 10 µL streaked onto pre-reduced (at least 2.5 hr in anaerobic chamber) BHIS agar plates supplemented with 0.1% w/v sodium taurocholate (BHIS(TA)). Plates were incubated for 24 hours prior to assay to give colonies of size 1-3mm diameter with characteristic uneven borders.
(§3) The minimum inhibition concentration was determined according to the CLSI Methods with modifications in broth and inoculum for C. difficile according to Babakhani et al.^7,8 Briefly, compounds were prepared to 20X final concentration in 100% water, 60% DMSO and 40% water or 60% DMSO and 40% media. The compounds along with standard antibiotics were serially diluted two-fold across the wells of 96-well non-binding surface plates (Non binding surface, Corning). The plates were placed in the anaerobic chamber overnight to reduce. C. difficile bacteria from BHIS(TA) agar plates were cultured anaerobically in BHIS at 37 °C overnight. A sample of culture was then diluted 40-fold in BHIS broth and incubated at 37 °C for approximately 4.5 hrs. The resultant mid-log phase culture (OD600= 0.5-0.6) was diluted to the final concentration of ~1×10^6 CFU/mL, then 50 µL was added to each well of the compound-containing 96-well plates. This gave final cell concentration of 5×10^5 CFU/mL, final volume 100 µL and 3% maximum DMSO concentration. Compound concentration was typically from 64 to 0.03 µg/mL. An antibiotic standard was included on each 96 well plate as well as a positive growth control (no compound) and sterility control (no bacteria). All the plates were covered and incubated at 37 °C for 24 h. MICs were the lowest concentration showing no visible growth.

[2] = system: C. difficile VPI10463 ATCC 43255; assay: MIC broth microdilution, C. difficile VPI 10463; details: VPI 10463, MtzS, 24 h, median of at least n = 4; for MIC: Clostridioides difficile, ATCC 43255 / ATCC BAA-1803
Protocol: as §1, §2, §3

[3] = system: C. difficile NAP1/027 ATCC BAA-1803; assay: MIC broth microdilution, C. difficile NAP1/027 ATCC BAA-1803; details: for MIC: Clostridioides difficile
Protocol: as §1, §2
as §3, with “All the plates were covered and incubated at 37 °C for 24 h.” left out

[4] = system: C. difficile NAP1/027 M7404; assay: MIC broth microdilution, C. difficile NAP1/027 M7404; details: NAP1/027 (footnote d: M7404), MtzS, 24 h, median of at least n = 4; for MIC: Clostridioides difficile, NAP1/027M7404
Protocol: as §1, §2, §3

[5] = ATCC 43255 / ATCC BAA-1803, NAP1/027 (footnote c: ATCC 43255), MtzS, 24 h, median of at least n = 4, read-out: MIC C. difficile NAP1/027 (footnote c)
[6] = ATCCBAA1803, 24 hr incubation, read-out: MIC C. difficile NAP1/027 ATCC BAA-1803 24 hr
[7] = ATCCBAA1803, 48 hr incubation, read-out: MIC C. difficile NAP1/027 ATCC BAA-1803 48 hr

Row | SMILES | MIC [1] | MIC [2] | MIC [3, 5] | MIC [3, 6] | MIC [3, 7] | MIC [4] | MIC C. difficile 630 ([1]; MtzS) | MIC C. difficile VPI 10463 [2] | MIC C. difficile NAP1/027 ATCC BAA-1803 24 hr ([3]; 24 hr incubation) | MIC C. difficile NAP1/027 ATCC BAA-1803 48 hr ([3]; 48 hr incubation) | MIC C. difficile NAP1/027 (footnote c) ([3]; NAP1/027 (footnote c: ATCC 43255), MtzS, 24 h, median of at least n = 4) | MIC C. difficile NAP1/027 (footnote d) [4]
1 | Cc1ncc([N+](=O)[O-])n1CCn1cc(-c2ccsc2)nn1 [Compound 4n, 1-(2-(2-methyl-5-nitro-1H-imidazol-1-yl)ethyl)-4-(thiophen-3-yl)-1H-1,2,3-triazole] | 0.5 µg/mL (≈ 1.64 µM) | 0.25 to 0.5 µg/mL (≈ 0.821 to 1.64 µM) | 0.5 µg/mL (≈ 1.64 µM) | 0.5 µg/mL (≈ 1.64 µM) | 0.5 µg/mL (≈ 1.64 µM) | 0.5 µg/mL (≈ 1.64 µM) |  |  |  |  |  | 
2 | Cc1ncc([N+](=O)[O-])n1CCn1cc(CN)nn1.O=C(O)C(F)(F)F [Compound 4t, 1-(2-(2-methyl-5-nitro-1H-imidazol-1-yl)ethyl)-4-(aminomethyl)-1H-1,2,3-triazole trifluoroacetate salt] | > 64 µg/mL | > 64 µg/mL | > 64 µg/mL | > 64 µg/mL | > 64 µg/mL | > 64 µg/mL |  |  |  |  |  | 
3 | Cc1ncc([N+](=O)[O-])n1CCn1cc(-c2ccc(Cl)c(Cl)c2)nn1 [Compound 4d, 1-(2-(2-methyl-5-nitro-1H-imidazol-1-yl)ethyl)-4-(3,4-dichlorophenyl)-1H-1,2,3-triazole] | 0.5 µg/mL (≈ 1.36 µM) | 0.5 to 1 µg/mL (≈ 1.36 to 2.72 µM) | 1 µg/mL (≈ 2.72 µM) | 1 µg/mL (≈ 2.72 µM) | 0.5 to 8 µg/mL (≈ 1.36 to 21.8 µM) | 1 µg/mL (≈ 2.72 µM) |  |  |  |  |  | 
4 | Cc1ncc([N+](=O)[O-])n1CCn1cc(-c2ncccn2)nn1 [Compound 4j, 1-(2-(2-methyl-5-nitro-1H-imidazol-1-yl)ethyl)-4-(2-pyrimidinyl)-1H-1,2,3-triazole] | 2 µg/mL (≈ 6.66 µM) | 2 µg/mL (≈ 6.66 µM) | 2 µg/mL (≈ 6.66 µM) | 2 µg/mL (≈ 6.66 µM) | 2 µg/mL (≈ 6.66 µM) | 2 µg/mL (≈ 6.66 µM) |  |  |  |  |  | 
5 | Cc1ncc([N+](=O)[O-])n1CCN=[N+]=[N-] [Compound 3, 1-(2-azidoethyl)-2-methyl-5-nitro-1H-imidazole] |  |  |  |  |  |  | 1 µg/mL (≈ 5.1 µM) | 0.5 µg/mL (≈ 2.55 µM) | 0.5 µg/mL (≈ 2.55 µM) | 1 µg/mL (≈ 5.1 µM) | 0.5 µg/mL (≈ 2.55 µM) | 0.5 µg/mL (≈ 2.55 µM)
6 | Cc1ncc([N+](=O)[O-])n1CCn1cc(-c2ccccc2)nn1 [Compound 4a, 1-(2-(2-methyl-5-nitro-1H-imidazol-1-yl)ethyl)-4-phenyl-1H-1,2,3-triazole] | 0.5 µg/mL (≈ 1.68 µM) | 0.25 to 0.5 µg/mL (≈ 0.838 to 1.68 µM) | 0.5 µg/mL (≈ 1.68 µM) | 0.5 µg/mL (≈ 1.68 µM) | 0.5 µg/mL (≈ 1.68 µM) | 0.5 µg/mL (≈ 1.68 µM) |  |  |  |  |  | 
7 | Cc1ncc([N+](=O)[O-])n1CCn1cc(CO)nn1 [Compound 4q, 1-(2-(2-methyl-5-nitro-1H-imidazol-1-yl)ethyl)-4-(hydroxymethyl)-1H-1,2,3-triazole] | 16 µg/mL (≈ 63.4 µM) | 16 µg/mL (≈ 63.4 µM) | 16 to 32 µg/mL (≈ 63.4 to 127 µM) | 16 µg/mL (≈ 63.4 µM) | 16 to 32 µg/mL (≈ 63.4 to 127 µM) | 16 µg/mL (≈ 63.4 µM) |  |  |  |  |  | 
8 | Cc1ncc([N+](=O)[O-])n1CCn1cc(CCO)nn1 [Compound 4p, 1-(2-(2-methyl-5-nitro-1H-imidazol-1-yl)ethyl)-4-(2-hydroxyethyl)-1H-1,2,3-triazole] | 8 µg/mL (≈ 30 µM) | 8 µg/mL (≈ 30 µM) | 16 µg/mL (≈ 60.1 µM) | 8 µg/mL (≈ 30 µM) | 8 to 16 µg/mL (≈ 30 to 60.1 µM) | 8 µg/mL (≈ 30 µM) |  |  |  |  |  | 
